Data on 41 compounds can be found in patent US8633183B2 (priority 2010, dated 2014).

One may read the IC50 as the point on the concentration scale where inhibition reaches its midpoint.

Molecules are shown by their SMILES.

Sequence of PI3Kalpha (P42336 whole entry, looked up): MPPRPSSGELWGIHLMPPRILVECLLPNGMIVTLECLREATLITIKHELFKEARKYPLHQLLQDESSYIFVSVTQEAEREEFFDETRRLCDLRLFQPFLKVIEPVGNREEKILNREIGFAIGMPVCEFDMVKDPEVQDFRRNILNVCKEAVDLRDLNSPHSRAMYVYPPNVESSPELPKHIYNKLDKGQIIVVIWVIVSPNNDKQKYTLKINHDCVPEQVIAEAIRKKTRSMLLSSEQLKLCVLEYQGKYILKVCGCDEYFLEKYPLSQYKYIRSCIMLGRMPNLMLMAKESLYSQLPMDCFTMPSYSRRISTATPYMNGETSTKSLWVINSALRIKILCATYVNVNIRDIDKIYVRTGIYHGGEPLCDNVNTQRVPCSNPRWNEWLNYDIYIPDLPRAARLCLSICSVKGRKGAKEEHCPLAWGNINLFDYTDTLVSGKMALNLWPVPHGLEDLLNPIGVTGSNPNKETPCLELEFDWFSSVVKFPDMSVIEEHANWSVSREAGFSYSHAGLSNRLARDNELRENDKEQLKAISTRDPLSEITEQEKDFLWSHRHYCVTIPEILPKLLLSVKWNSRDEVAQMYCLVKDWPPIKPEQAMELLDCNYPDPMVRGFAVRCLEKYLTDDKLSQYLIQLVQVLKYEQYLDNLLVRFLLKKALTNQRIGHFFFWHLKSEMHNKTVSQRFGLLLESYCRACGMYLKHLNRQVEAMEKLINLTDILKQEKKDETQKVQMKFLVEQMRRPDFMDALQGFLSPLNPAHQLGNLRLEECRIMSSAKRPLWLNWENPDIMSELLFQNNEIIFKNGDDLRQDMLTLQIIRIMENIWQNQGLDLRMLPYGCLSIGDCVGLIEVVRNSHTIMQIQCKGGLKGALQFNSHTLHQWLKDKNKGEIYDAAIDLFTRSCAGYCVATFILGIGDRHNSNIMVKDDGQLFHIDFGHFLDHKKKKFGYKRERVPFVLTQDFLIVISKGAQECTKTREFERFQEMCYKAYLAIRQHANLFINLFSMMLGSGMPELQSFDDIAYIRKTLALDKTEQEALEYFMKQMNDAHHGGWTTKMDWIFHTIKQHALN

The assay has as its target PI3Kalpha (Homo sapiens (Human), UniProt P42336). The conditions noted are these: read-out: IC50 PI3K.
As for `CCc1ncnc(-c2ccc(C(=O)N3CCC(C)(O)CC3)c(Cl)c2)c1C#Cc1ccc(N)nc1` [Example D-143], the IC50 was 0.077 µM. With `CCc1ncnc(-c2ccc(C(=O)N3CCN(CC(=O)N(C)C)CC3)c(F)c2)c1C#Cc1ccc(N)nc1C` [Example D-23], the IC50 was determined as 0.123 µM. Next, `CCc1ncnc(-c2ccc(C(=O)N3CCN(C(CC)CC)CC3)c(F)c2)c1C#Cc1ccc(N)nc1` [Example D-130]: 0.384 µM. The result for `CCc1ncnc(-c2ccc(C(=O)N3CCC4(CC3)CNC4)c(Cl)c2)c1C#Cc1ccc(N)nc1` [Example E-251] reads 0.0907 µM. The result for `CCc1ncnc(-c2cc(F)c(C(=O)N3CCn4cnnc4C3)c(F)c2)c1C#Cc1ccc(N)nc1` [Example E-148] reads 0.0706 µM; that for `CCc1ncnc(-c2ccc(C(=O)N3CCN(CCO)CC3)c(OC)c2)c1C#Cc1ccc(N)nc1` [Example D-57], 0.152 µM; that for `CCc1ncnc(-c2cc(F)c(C(=O)N3CCC(N4CCOCC4)CC3)c(Cl)c2)c1C#Cc1ccc(N)nc1` [Example E-236], 0.141 µM. In the case of `CCc1ncnc(-c2cc(F)c(C(=O)N3CCN(C)C(=O)C3)c(Cl)c2)c1C#Cc1ccc(N)nc1` [Example E-239], the IC50 worked out at 0.0462 µM. Turning to `CCc1ncnc(-c2ccc(C(=O)N3CCC(N4CCOCC4)CC3)c(F)c2)c1C#Cc1ccc(N)nc1` [Example D-63], the IC50 came out at 0.234 µM. The result for `CCc1ncnc(-c2ccc(C(=O)N3CCCN(C)CC3)c(Cl)c2)c1C#Cc1ccc(N)nc1` [Example D-154] reads 0.405 µM; that for `CCc1ncnc(-c2ccc(C(=O)N3CCN(C(C)COC)CC3)c(Cl)c2)c1C#Cc1ccc(N)nc1` (centres unmarked) [Example E-313], 0.122 µM; that for `CCc1ncnc(-c2ccc(C(=O)N(C)C3CCS(=O)(=O)C3)c(Cl)c2)c1C#Cc1ccc(N)nc1` (centres unmarked) [Example E-80], 0.0482 µM. Next, `CCc1ncnc(-c2ccc(C(=O)N3CCOCC3)c(F)c2)c1C#Cc1ccc(N)nc1C` [Example D-20]: 0.116 µM; `CCc1ncnc(-c2cc(F)c(C(=O)N3CCC4(CC3)CNC4)c(F)c2)c1C#Cc1ccc(N)nc1` [Example E-161]: 0.925 µM.

For the compound `CCc1ncnc(-c2ccc(C(=O)NCC3(C)COC3)c(F)c2)c1C#Cc1ccc(N)nc1` [Example D-214], the IC50 amounted to 0.072 µM. Turning to `CCc1ncnc(-c2ccc(C(=O)N3CCC(C(C)(C)O)CC3)c(C(F)(F)F)c2)c1C#Cc1ccc(N)nc1` [Example E-232], the IC50 stood at 0.142 µM.

On to `CCc1ncnc(-c2ccc(C(F)(F)F)nc2)c1C#Cc1ccc(N)nc1` [Example C-28], for which the IC50 came out at 0.058 µM.

Consider `CCc1ncnc(-c2cc(F)c(C(=O)N3CC4(CN(C)C4)C3)c(Cl)c2)c1C#Cc1ccc(N)nc1` [Example E-289], for which the half-inhibitory concentration (IC50) came out at 0.298 µM.

For the compound `CCc1ncnc(-c2ccc(C(=O)N3CCN(C4CCN(C)CC4)CC3)c(F)c2)c1C#Cc1ccc(N)nc1` [Example D-64], the 50% inhibitory concentration (IC50) stood at 0.198 µM. Next, `CCc1ncnc(-c2ccc(C(=O)N3CC[C@H](N(C)C)C3)c(F)c2)c1C#Cc1ccc(NC)nc1` [Example E-181]: 0.275 µM.

Regarding `CCc1ncnc(-c2ccc(C(=O)N3CCn4c(COC)nnc4C3)c(F)c2)c1C#Cc1ccc(N)nc1` [Example E-163], the IC50 is 0.0508 µM.

`CCc1ncnc(-c2cc(Cl)c(C(=O)N3CCC(CO)CC3)c(Cl)c2)c1C#Cc1ccc(N)nc1` [Example E-205]: the IC50 amounted to 0.0489 µM. Next, `CCc1ncnc(-c2cc(F)c(C(=O)N3CCC4(CC3)COC4)c(Cl)c2)c1C#Cc1ccc(N)nc1` [Example E-158]: 0.122 µM. The result for `CCc1ncnc(-c2ccc(C(=O)N3CCN(c4ccccn4)CC3)c(F)c2)c1C#Cc1ccc(N)nc1` [Example D-92] reads 0.124 µM; that for `CCc1ncnc(-c2cc(F)c(C(=O)N3CCN(CC(C)(C)O)CC3)c(Cl)c2)c1C#Cc1ccc(N)nc1` [Example E-240], 0.115 µM. With `Cc1ncnc(-c2ccc(C(=O)N3CCCCO3)c(F)c2)c1C#Cc1ccc(N)nc1` [Example D-227], the IC50 is 0.047 µM.

`CCc1ncnc(-c2ccc(C(=O)N3CCN(C4CCS(=O)(=O)C4)CC3)c(F)c2)c1C#Cc1ccc(N)nc1` [Example D-86]: the IC50 was 0.095 µM. On to `CCc1ncnc(-c2cc(Cl)c(C(=O)N3CCN(CC(C)(C)O)CC3)c(Cl)c2)c1C#Cc1ccc(N)nc1` [Example E-199], for which the IC50 is 0.0746 µM. As for `CCc1ncnc(-c2ccc(C(=O)N3CCn4ccnc4C3)c(Cl)c2)c1C#Cc1ccc(N)nc1` [Example E-256], the IC50 is 0.023 µM.

Turning to `CCc1ncnc(-c2ccc(C(=O)N3CCC(N4CCCCC4)CC3)c(F)c2)c1C#Cc1ccc(N)nc1` [Example D-70], the IC50 is 0.49 µM.

As for `CCCCN1CCN(C(=O)c2ccc(-c3ncnc(C)c3C#Cc3ccc(N)nc3)cc2)CC1` [Example D-190], the IC50 amounted to 0.153 µM. Next, `CCc1ncnc(-c2ccc(C(=O)N3CCN(Cc4nc(C)c(C)o4)CC3)c(Cl)c2)c1C#Cc1ccc(N)nc1` [Example E-315]: 0.127 µM; `CCc1ncnc(-c2ccc(C(=O)N3CCN(CCNS(C)(=O)=O)CC3)c(F)c2)c1C#Cc1ccc(N)nc1` [Example E-246]: 0.0813 µM; `Cc1ncnc(-c2cccc(C(=O)N(C)C)c2)c1C#Cc1ccc(N)nc1` [Example C-10]: 0.401 µM. As for `Cc1ncnc(-c2ccc(C(=O)N3CCCO3)c(F)c2)c1C#Cc1ccc(N)nc1` [Example D-226], the IC50 worked out at 0.048 µM. Next, `CCc1ncnc(-c2ccc(C(=O)N3CCN(S(=O)(=O)CC)CC3)c(Cl)c2)c1C#Cc1ccc(N)nc1` [Example E-81]: 0.0395 µM. Next, `CCc1ncnc(-c2ccc(C(=O)N3CCC4(CC3)CC(N)C4)c(F)c2)c1C#Cc1ccc(N)nc1` [Example E-320]: 1.3 µM; `CCc1ncnc(-c2ccc(C(=O)N3CCN(CC(F)F)CC3)c(OC)c2)c1C#Cc1ccc(N)nc1` [Example D-47]: 0.063 µM.

For the compound `CCc1ncnc(-c2cc(F)c(C(=O)N3CCN(C=O)CC3)c(F)c2)c1C#Cc1ccc(NC)nc1` [Example E-219], the half-inhibitory concentration (IC50) is 0.163 µM.

With `CCc1ncnc(-c2ccc(C(=O)NC3CCN(C4CCN(C)CC4)C3)c(F)c2)c1C#Cc1ccc(N)nc1` [Example D-210], the IC50 worked out at 0.37 µM. As for `CCc1ncnc(-c2ccc(C(=O)N3CCN(C)CC3)c(Cl)c2)c1C#Cc1ccc(NC)nc1` [Example E-191], the IC50 came out at 0.142 µM.
